Series [1] deals with human P-glycoprotein (P-gp, MDR1) (Homo sapiens (Human), UniProt P08183). Briefly: MDCK-MDR1 cell monolayer drug transport assay (P-gp efflux ratio). Format: in vitro ADME. To be noted: pH 7.4, MDCK-MDR1 cells, 1 uM concentration of compound, read-out: Pgp Efflux Ratio, 1 uM. Put shortly:
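P-gp substrate potential tested in MDCK-MDR1 monolayers on Transwell supports, cultured 4-8 days; monolayers with TEER <42 ohms·cm2 discarded. Transport run in HBSS (10 mM HEPES, pH 7.4) at 37° C with compound working solution at 1 μM.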

Another series has as its target wild type c-kit (Homo sapiens (Human), UniProt P10721). Briefly: MSD Phospho c-Kit (Tyr721) Assay Whole Cell Lysate Kit in SCF-stimulated M-07e cells (pKIT assay, marked *). In kind it is cell-based. Particulars: Meso Scale Discovery (MSD) assay (values marked *). As to the method: The ability of compounds of the disclosure (described herein as test compounds) to inhibit autophosphorylation of wild type c-kit was measures using either a PathScan phospho c-kit (Tyr719) sandwich ELISA (CST #7298) or a Phospho c-Kit (Tyr721) Assay Whole Cell Lysate Kit (MSD: 515DPD/catalog number K15119D-2).
For the MSD Phospho c-Kit (Tyr721) Assay Whole Cell Lysate Kit: M-07e cells were maintained in Iscove's Modified Dulbecco's Medium (IMDM) media supplemented with 10% FBS, 5 ng/ml granulocyte-macrophage colony-stimulating factor (GM-CSF) and 100 units/mL Penicillin-Streptomycin, and grown in a 37° C., 5% CO2 in a humidified tissue culture incubator. M-07e cells were washed with phenol red-free, serum-free, GM-CSF-free IMDM and seeded in the same media at 100,000 cells well in a volume of 50 ul in a 96-well U-bottom plate. The cells were incubated for 4 hours, followed by the addition of test compound at a final DMSO concentration of 0.25% for 60 min at 37° C. to generate an 8-point dose concentration series of test compounds. The cells were stimulated with 50 ng/ml human SCF for 10 min at room temperature. Cells were then lysed by the addition of 16.5 ul of PerkinElmer 5× AlphaLISA Lysis Buffer supplemented with Cell Signaling Technologies protease/phosphatase inhibitor. Lysis was encouraged by shaking at 4° C. for 30 minutes.
25 ul of lysate was transferred to the MSD plate and the plate was shaken at 700 rpm at room temperature for one hour, followed by washing 3 times with Tris wash buffer. Next, 25 ul of detection antibody solution (diluted from 50× stock in antibody dilution buffer) was added. After shaking at 700 rpm at room temperature for one hour, the plate was washed 3 times with Tris wash buffer. The plate was then read on MSD Sector Imager immediately after 150 ul of reading buffer added to each well.
An IC50 was calculated using a 4-parameter logistic nonlinear regression.

The structures appear in SMILES notation.

wild type c-kit, sequence (P10721 26-976): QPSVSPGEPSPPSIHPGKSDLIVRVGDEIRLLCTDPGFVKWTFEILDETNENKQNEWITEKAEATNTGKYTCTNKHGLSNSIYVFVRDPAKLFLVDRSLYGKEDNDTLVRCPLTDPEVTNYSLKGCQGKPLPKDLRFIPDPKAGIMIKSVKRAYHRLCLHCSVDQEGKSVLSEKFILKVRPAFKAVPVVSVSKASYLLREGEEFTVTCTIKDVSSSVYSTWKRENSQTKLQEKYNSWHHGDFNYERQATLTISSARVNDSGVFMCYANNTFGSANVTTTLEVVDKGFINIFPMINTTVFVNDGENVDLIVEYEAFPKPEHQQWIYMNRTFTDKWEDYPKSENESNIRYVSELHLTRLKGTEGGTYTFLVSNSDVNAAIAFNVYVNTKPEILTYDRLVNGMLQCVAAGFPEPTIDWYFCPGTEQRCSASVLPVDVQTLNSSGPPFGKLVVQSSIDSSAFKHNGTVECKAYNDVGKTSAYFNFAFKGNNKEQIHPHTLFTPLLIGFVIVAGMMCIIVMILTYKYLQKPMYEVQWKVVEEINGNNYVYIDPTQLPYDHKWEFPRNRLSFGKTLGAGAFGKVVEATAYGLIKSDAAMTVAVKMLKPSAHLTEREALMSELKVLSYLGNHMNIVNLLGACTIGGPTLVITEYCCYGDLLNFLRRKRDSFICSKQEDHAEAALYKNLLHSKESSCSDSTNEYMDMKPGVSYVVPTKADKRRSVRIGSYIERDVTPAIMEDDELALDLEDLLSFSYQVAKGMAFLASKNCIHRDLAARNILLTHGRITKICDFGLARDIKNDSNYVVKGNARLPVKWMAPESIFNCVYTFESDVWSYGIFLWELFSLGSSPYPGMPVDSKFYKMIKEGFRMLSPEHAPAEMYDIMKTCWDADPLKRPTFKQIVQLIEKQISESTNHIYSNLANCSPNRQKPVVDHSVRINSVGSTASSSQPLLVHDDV
human P-glycoprotein (P-gp, MDR1), sequence (P08183 whole entry): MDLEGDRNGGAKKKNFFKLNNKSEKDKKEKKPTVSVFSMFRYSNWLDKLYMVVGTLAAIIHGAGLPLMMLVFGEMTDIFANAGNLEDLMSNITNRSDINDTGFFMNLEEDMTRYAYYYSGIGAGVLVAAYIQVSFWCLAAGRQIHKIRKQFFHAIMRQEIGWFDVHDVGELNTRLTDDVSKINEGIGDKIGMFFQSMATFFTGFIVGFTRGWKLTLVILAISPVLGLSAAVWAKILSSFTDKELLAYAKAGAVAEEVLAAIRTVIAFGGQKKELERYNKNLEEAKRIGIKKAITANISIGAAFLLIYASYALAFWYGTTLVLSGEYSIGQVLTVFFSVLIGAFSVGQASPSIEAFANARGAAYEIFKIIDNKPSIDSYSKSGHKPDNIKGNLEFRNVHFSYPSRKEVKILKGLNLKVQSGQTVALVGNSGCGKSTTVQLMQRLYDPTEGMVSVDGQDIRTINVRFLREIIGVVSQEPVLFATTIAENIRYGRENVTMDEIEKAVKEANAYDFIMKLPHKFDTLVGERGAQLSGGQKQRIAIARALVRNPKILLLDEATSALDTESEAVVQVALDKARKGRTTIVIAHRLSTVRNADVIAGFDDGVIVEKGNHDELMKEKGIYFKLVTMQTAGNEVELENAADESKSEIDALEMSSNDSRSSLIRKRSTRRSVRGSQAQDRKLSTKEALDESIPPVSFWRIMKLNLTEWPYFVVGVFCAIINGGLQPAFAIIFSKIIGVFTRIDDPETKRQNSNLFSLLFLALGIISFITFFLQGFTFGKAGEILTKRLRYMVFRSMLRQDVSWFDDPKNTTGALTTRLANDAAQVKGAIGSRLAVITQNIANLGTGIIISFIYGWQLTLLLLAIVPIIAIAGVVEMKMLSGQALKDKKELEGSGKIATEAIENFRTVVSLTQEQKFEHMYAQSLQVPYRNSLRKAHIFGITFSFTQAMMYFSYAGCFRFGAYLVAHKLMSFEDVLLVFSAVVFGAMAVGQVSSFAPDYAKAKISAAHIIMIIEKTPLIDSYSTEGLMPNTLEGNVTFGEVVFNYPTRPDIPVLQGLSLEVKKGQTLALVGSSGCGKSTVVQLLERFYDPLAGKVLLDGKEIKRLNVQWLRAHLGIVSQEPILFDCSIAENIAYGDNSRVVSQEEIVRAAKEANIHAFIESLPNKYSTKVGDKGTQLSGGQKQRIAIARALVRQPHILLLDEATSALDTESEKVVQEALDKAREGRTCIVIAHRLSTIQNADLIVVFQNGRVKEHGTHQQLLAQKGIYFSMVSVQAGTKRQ

A word on the IC50: it is the concentration at which inhibition is half-maximal. Consider `Cc1ccc(-c2nnn(C[C@@H]3CC3(F)F)n2)cc1NC(=O)c1cnn2ccc(-c3cn[nH]c3)cc12` (single isomer, unassigned) [Example 56, (S)—N-(5-(2-((2,2-difluorocyclopropyl)methyl)-2H-tetrazol-5-yl)-2-methylphenyl)-5-(1H-pyrazol-4-yl)pyrazolo[1,5-a]pyridine-3-carboxamide or (R)—N-(5-(2-((2,2-difluorocyclopropyl)methyl)-2H-tetrazol-5-yl)-2-methylphenyl)-5-(1H-pyrazol-4-yl)pyrazolo[1,5-a]pyridine-3-carboxamide], for which the efflux ratio at 2 h, 1 µM in series [1] worked out at 24.5. 1.1 nM corresponded to half-maximal inhibition at wild type c-kit (IC50).

Take `Cc1ccc(-c2nnn(C3CN(S(=O)(=O)C4(C)CC4)C3)n2)cc1NC(=O)c1cnn2ccccc12` [Example 181, N-(2-methyl-5-(2-(1-((1-methylcyclopropyl)sulfonyl)azetidin-3-yl)-2H-tetrazol-5-yl)phenyl)pyrazolo[1,5-a]pyridine-3-carboxamide]: the efflux ratio at 2 h, 1 µM in series [1] turned out to be 3.1. Further, the concentration for half-maximal inhibition (IC50) against wild type c-kit stood at 6.4 nM.

Regarding `Cc1ccc(-c2nnn(C3CN(S(=O)(=O)CCO)C3)n2)cc1NC(=O)c1cnn2ccccc12` [Example 203, N-(5-(2-(1-((2-hydroxyethyl)sulfonyl)azetidin-3-yl)-2H-tetrazol-5-yl)-2-methylphenyl)pyrazolo[1,5-a]pyridine-3-carboxamide], in series [1], the efflux ratio at 2 h, 1 µM is 12.8. Moreover, at wild type c-kit, inhibition was half-maximal at 16.7 nM (IC50).

On to `Cc1ccc(-c2nnn(C)n2)cc1NC(=O)c1cnn2ccc(-c3cn[nH]c3)cc12` [Example 43, N-(2-methyl-5-(2-methyl-2H-tetrazol-5-yl)phenyl)-5-(1H-pyrazol-4-yl)pyrazolo[1,5-a]pyridine-3-carboxamide], for which the efflux ratio at 2 h, 1 µM in series [1] was determined as 11.9. Further, 5.4 nM corresponded to half-maximal inhibition at wild type c-kit (IC50).

On to `Cc1ccc(-c2nnn(C3CC(F)(F)C3)n2)cc1NC(=O)c1cnn2ccc(-c3cn[nH]c3)cc12` [Example 198, N-(5-(2-(3,3-difluorocyclobutyl)-2H-tetrazol-5-yl)-2-methylphenyl)-5-(1H-pyrazol-4-yl)pyrazolo[1,5-a]pyridine-3-carboxamide], for which the efflux ratio at 2 h, 1 µM in series [1] was 16.6. On wild type c-kit, this molecule registered an IC50 of 1.7 nM.

`COc1ccn2ncc(C(=O)Nc3cc(-c4nnn(C5CN(S(C)(=O)=O)C5)n4)ccc3C)c2c1` [Example 153, 5-methoxy-N-(2-methyl-5-(2-(1-(methylsulfonyl)azetidin-3-yl)-2H-tetrazol-5-yl)phenyl)pyrazolo[1,5-a]pyridine-3-carboxamide]: the efflux ratio at 2 h, 1 µM in series [1] came to 3.9. Also, on wild type c-kit, the IC50 came out at 4.5 nM.

Molecule `Cc1ccc(-c2nnn(CC34CC(F)(C3)C4)n2)cc1NC(=O)c1cnn2ccccc12` [Example 30, N-(5-(2-((3-fluorobicyclo[1.1.1]pentan-1-yl)methyl)-2H-tetrazol-5-yl)-2-methylphenyl)pyrazolo[1,5-a]pyridine-3-carboxamide] returned an IC50 at wild type c-kit of 2.7 nM.

Take `Cc1ccc(-c2nnn(C3CC4(CCC4)C3)n2)cc1NC(=O)c1cnn2ccccc12` [Example 4, N-(2-methyl-5-(2-(spiro[3.3]heptan-2-yl)-2H-tetrazol-5-yl)phenyl)pyrazolo[1,5-a]pyridine-3-carboxamide]: the half-inhibitory concentration (IC50) at wild type c-kit was 2.6 nM. This IC50 and that of the molecule before are within 1.5-fold of each other.

At wild type c-kit, `Cc1ccc(-c2nnn(CCOCC(F)(F)F)n2)cc1NC(=O)c1cnn2ccccc12` [Example 158, N-(2-methyl-5-(2-(2-(2,2,2-trifluoroethoxy)ethyl)-2H-tetrazol-5-yl)phenyl)pyrazolo[1,5-a]pyridine-3-carboxamide] showed an IC50 of 5.7 nM. Compared with the last molecule, the IC50 is about 2.2-fold higher.

`CS(=O)(=O)N1CC(c2nnn(-c3ccc(Cl)c(NC(=O)c4cnn5ccccc45)c3)n2)C1` [Example 187]: half-maximal inhibition on wild type c-kit (IC50) required 6.2 nM.

As to `Cc1ccc(-c2nnn(C3CN(S(C)(=O)=O)C3)n2)cc1NC(=O)c1cnn2ccc(C3CC3)cc12` [Example 50, 5-cyclopropyl-N-(2-methyl-5-(2-(1-(methylsulfonyl)azetidin-3-yl)-2H-tetrazol-5-yl)phenyl)pyrazolo[1,5-a]pyridine-3-carboxamide], the efflux ratio at 2 h, 1 µM in series [1] stood at 6.5. This molecule registered an IC50 on wild type c-kit of 8 nM.

For the molecule `Cc1ccc(-c2nnn(C3CC(F)(F)C3)n2)cc1NC(=O)c1cnn2ccccc12` [Example 5, N-(5-(2-(3,3-difluorocyclobutyl)-2H-tetrazol-5-yl)-2-methylphenyl)pyrazolo[1,5-a]pyridine-3-carboxamide], at wild type c-kit, half-maximal inhibition (IC50) was put at 5 nM. In other words, the single-digit nanomolar range.

Turning to `Cc1ccc(-c2nnn(C3CCOCC3)n2)cc1NC(=O)c1cnn2ccccc12` [Example 31, N-(2-methyl-5-(2-(tetrahydro-2H-pyran-4-yl)-2H-tetrazol-5-yl)phenyl)pyrazolo[1,5-a]pyridine-3-carboxamide], on wild type c-kit, the concentration for half-maximal inhibition (IC50) was 8.3 nM. This IC50 is about 1.7-fold higher than that of the molecule before.

`Cc1ccc(-c2nnn([C@H]3C[C@H](C(F)(F)F)C3)n2)cc1NC(=O)c1cnn2ccc(-c3cn[nH]c3)cc12` [Example 44, N-(2-methyl-5-(2-((1r,3r)-3-(trifluoromethyl)cyclobutyl)-2H-tetrazol-5-yl)phenyl)-5-(1H-pyrazol-4-yl)pyrazolo[1,5-a]pyridine-3-carboxamide or N-(2-methyl-5-(2-((1s,3s)-3-(trifluoromethyl)cyclobutyl)-2H-tetrazol-5-yl)phenyl)-5-(1H-pyrazol-4-yl)pyrazolo[1,5-a]pyridine-3-carboxamide]: in series [1], the efflux ratio at 2 h, 1 µM came out at 15.9. Moreover, the IC50 against wild type c-kit worked out at 1.5 nM.

The molecule `Cc1ccc(-c2nnn(CC3CCCCO3)n2)cc1NC(=O)c1cnn2ccccc12` (stereo not drawn) [Example 34, N-(2-methyl-5-(2-((tetrahydro-2H-pyran-2-yl)methyl)-2H-tetrazol-5-yl)phenyl)pyrazolo[1,5-a]pyridine-3-carboxamide] came in with an IC50 on wild type c-kit of 9.5 nM.

Take `Cc1ccc(-c2nnn(C(C)C3CCOCC3)n2)cc1NC(=O)c1cnn2ccccc12` (single isomer, unassigned) [Example 39, (R)-N-(2-methyl-5-(2-(1-(tetrahydro-2H-pyran-4-yl)ethyl)-2H-tetrazol-5-yl)phenyl)pyrazolo[1,5-a]pyridine-3-carboxamide or (S)-N-(2-methyl-5-(2-(1-(tetrahydro-2H-pyran-4-yl)ethyl)-2H-tetrazol-5-yl)phenyl)pyrazolo[1,5-a]pyridine-3-carboxamide]: at wild type c-kit, the midpoint of inhibition, the IC50, lay at 9.1 nM.

Take `Cc1ccc(-c2nnn(C[C@@H]3CC3(F)F)n2)cc1NC(=O)c1cnn2ccccc12` (single isomer, unassigned) [Example 25, (S)—N-(5-(2-((2,2-difluorocyclopropyl)methyl)-2H-tetrazol-5-yl)-2-methylphenyl)pyrazolo[1,5-a]pyridine-3-carboxamide or (R)—N-(5-(2-((2,2-difluorocyclopropyl)methyl)-2H-tetrazol-5-yl)-2-methylphenyl)pyrazolo[1,5-a]pyridine-3-carboxamide]: the midpoint of inhibition against wild type c-kit, the IC50, lay at 7.6 nM.

Consider `Cc1ccc(-c2nnn(C[C@H]3CC3(F)F)n2)cc1NC(=O)c1cnn2ccc(-c3cn[nH]c3)cc12` (single isomer, unassigned) [Example 55, (R)—N-(5-(2-((2,2-difluorocyclopropyl)methyl)-2H-tetrazol-5-yl)-2-methylphenyl)-5-(1H-pyrazol-4-yl)pyrazolo[1,5-a]pyridine-3-carboxamide or (S)—N-(5-(2-((2,2-difluorocyclopropyl)methyl)-2H-tetrazol-5-yl)-2-methylphenyl)-5-(1H-pyrazol-4-yl)pyrazolo[1,5-a]pyridine-3-carboxamide], for which the efflux ratio at 2 h, 1 µM in series [1] was 19.7. For the same molecule, at wild type c-kit, the concentration for half-maximal inhibition (IC50) turned out to be 1.1 nM.

The values above are taken from US20240262826A1, “WILD TYPE KIT INHIBITORS” (Blueprint Medicines Corporation, priority 2022, published 2024).
